Results: patent publication US20250084039A1, “4-SUBSTITUTED AMINOISOQUINOLINE DERIVATIVES” (Purdue Research Foundation, priority 2016, published 2025)

Assays:
[1] = tested on: THP1; assay: Selectivity, proliferation IC50; format: cell-based; details: Homo sapiens, THP-1; read-out: IC50 THP1 (non-FLT3-driven AML line)
Procedure: (§1) Cell lines were seeded into 96-well plates the afternoon prior to treatment. Approximately 18 hours later, compounds were diluted in dimethyl sulfoxide (DMSO) and added to cells. Plates were incubated for 72 hours and cells viability determined with CellTiter-Blue Cell Viability Assay (Promega, Madison, WI). Plates were read after 4 additional hours of incubation at 37° C. using plate reader (Bio-Tek, Winooski. VT). Data was analyzed and graphed using GraphPad Prism Software (Graphpad. La Jolla, CA).

[2] = tested on: HL60; assay: Selectivity, proliferation IC50; format: cell-based; details: Homo sapiens, HL-60; read-out: IC50 HL60 (acute promyelocytic leukemia)
Procedure: as §1

[3] = tested on: Kasumi-1; assay: Selectivity, proliferation IC50; format: cell-based; details: Homo sapiens, read-out: IC50 Kasumi-1 (non-FLT3 AML line)
Procedure: as §1

[4] = target: CDK6 (Homo sapiens (Human), UniProt Q00534); assay: DiscoverX Kd Elect binding
Procedure: HCK is expressed more in human primary leukemic stem cells than in human normal hematopoietic stem cells. […] Other protein kinases such as SYK, BRAF, p38 (p38MAPK), PDGFRα/β, FGFR1, RET, FLT4, Tie2 have also been linked to leukemia. […] Thus, it was tested if HSN286 and analogs were also targeting kinases that play critical roles in AML. […] (Table 9). The inhibition of the Src-kinase family could be important clinically because these kinases are downstream of FLT3. In the event of FLT3 mutation, the inhibition of the Src-family kinases could still lead to proliferation inhibition.

CDK6, sequence (Q00534 whole entry): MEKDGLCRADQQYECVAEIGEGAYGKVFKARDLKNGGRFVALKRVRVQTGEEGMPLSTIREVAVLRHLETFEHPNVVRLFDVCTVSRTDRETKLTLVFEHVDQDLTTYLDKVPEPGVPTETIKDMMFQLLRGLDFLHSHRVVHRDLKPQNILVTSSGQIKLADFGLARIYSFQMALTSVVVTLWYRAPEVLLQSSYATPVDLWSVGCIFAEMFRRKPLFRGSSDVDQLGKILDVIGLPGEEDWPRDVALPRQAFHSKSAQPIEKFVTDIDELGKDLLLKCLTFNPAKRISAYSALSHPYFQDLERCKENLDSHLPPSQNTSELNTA

Question: What does the source list for Cc1ccc(C(=O)Nc2ccc(CN3CCN(C)CC3)c(C(F)(F)F)c2)cc1C#Cc1c(N)ncc2ccc(Cl)cc12 [HSN286]?
Answer: IC50 [1]: 2320 nM; IC50 [2]: 2160 nM; IC50 [3]: > 10000 nM; Kd [4]: 28000 nM
